The source of these data is patent publication US9278912B2, “C13-hydroxy derivatives of oleanolic acid and methods of use thereof” (priority 2012, dated 2016).

Usually IC50 stands for the point on the concentration scale where inhibition reaches its midpoint.

The assay relates to IFNγ-induced NO production in RAW264.7 mouse macrophages. The assay is described as follows: Suppression of IFNγ-induced NO production (Nitric Oxide Production and Cell Viability Assay). To be noted: RAW264.7 cells, 2 h pretreatment, then IFNγ 24 h, Griess reagent, normalized to cell viability (WST-1). Type of assay: cell-based. How it is done: Assay results for the suppression of IFNγ-induced NO production are shown for several of the compounds of the present invention in Table 1 below. In the right-hand column of this table under the RAW264.7 heading, the results are compared to those of bardoxolone methyl (RTA 402, CDDO-Me). Details regarding this assay are provided in the Examples section below. Nitric Oxide Production and Cell Viability Assay. […] On the next day, cells were pretreated with DMSO or drug (0-200 nM dose range) for 2 hours, and then treated with recombinant mouse IFNγ (R&D Systems) for 24 hours. Nitric Oxide concentration in media was determined using the Griess reagent system (Promega). Cell viability was determined using WST-1 reagent (Roche). IC50 values were determined based on the suppression of IFNγ induced Nitric Oxide production normalized to cell viability.
Consider `CC1(C)CC[C@]2(CO)CC[C@]3(C)[C@](O)([C@H](O)C=C4[C@@]5(C)C=C(C#N)C(=O)C(C)(C)[C@@H]5CC[C@]43C)[C@@H]2C1` [TX63489], for which the IC50 worked out at 61 nM.
On to `CC(=O)OC[C@]12CCC(C)(C)C[C@H]1[C@@]1(O)C(=O)C=C3[C@@]4(C)C=C(C#N)C(=O)C(C)(C)[C@@H]4CC[C@@]3(C)[C@]1(C)CC2` [TX63499], for which the IC50 turned out to be 2.1 nM.
The figure for `COC(=O)[C@]12CCC(C)(C)C[C@H]1[C@@]1(O)C(=O)C=C3[C@@]4(C)C=C(C#N)C(=O)C(C)(C)[C@@H]4CC[C@@]3(C)[C@]1(C)CC2` [TX63421] is 2.3 nM; for `CCCCC1O[C@]23C(=O)C=C4[C@@]5(C)C=C(C#N)C(=O)C(C)(C)[C@@H]5CC[C@@]4(C)[C@]2(C)CC[C@]12CCC(C)(C)C[C@H]23` (stereo partly shown) [TX63484] it is 37 nM; for `CCNC(=O)[C@]12CCC(C)(C)C[C@H]1[C@@]1(O)C(=O)C=C3[C@@]4(C)C=C(C#N)C(=O)C(C)(C)[C@@H]4CC[C@@]3(C)[C@]1(C)CC2` [TX63536] it is 5.6 nM.
The figure for `CC(C)C1O[C@]23C(=O)C=C4[C@@]5(C)C=C(C#N)C(=O)C(C)(C)[C@@H]5CC[C@@]4(C)[C@]2(C)CC[C@]12CCC(C)(C)C[C@H]23` (stereo partly shown) [TX63496] is 37 nM; for `CC(=O)OC[C@]12CCC(C)(C)C[C@H]1[C@@]1(O)[C@H](OC(C)=O)C=C3[C@@]4(C)C=C(C#N)C(=O)C(C)(C)[C@@H]4CC[C@@]3(C)[C@]1(C)CC2` [TX63498] it is 24 nM.
Turning to `CCOC(=O)[C@]12CCC(C)(C)C[C@H]1[C@@]1(O)C(=O)C=C3[C@@]4(C)C=C(C#N)C(=O)C(C)(C)[C@@H]4CC[C@@]3(C)[C@]1(C)CC2` [TX63469], the IC50 worked out at 2.2 nM.
The figure for `CC1(C)CC[C@]2(CO)CC[C@@]3(C)[C@]4(C)CC[C@H]5C(C)(C)C(=O)C(C#N)=C[C@]5(C)C4=CC(=O)[C@]3(O)[C@@H]2C1` [TX63490] is 1.5 nM; for `CC1(C)CC[C@]2(C(N)=O)CC[C@@]3(C)[C@]4(C)CC[C@H]5C(C)(C)C(=O)C(C#N)=C[C@]5(C)C4=CC(=O)[C@]3(O)[C@@H]2C1` [TX63530] it is 1.4 nM.
